Measurements from the NIST ThermoML archive (doi:10.1021/je300234g).
± gives the expanded uncertainty stated by the source.

Columns and labels:
[1] = Crystal; visual observation
[2] = relative permittivity at zero frequency (dimensionless); conditions: 101.3 kPa, Liquid, Parallel plate capacitor

C1COCCOCCOCCOCCOCCO1 [1,4,7,10,13,16-hexaoxacyclooctadecane]
Normal melting temperature [1]: 43.4 ± 3 °C | relative permittivity at zero frequency ([2]; 315.65 K): 8.9 ± 0.09 | relative permittivity at zero frequency ([2]; 318.15 K): 8.86 ± 0.09 | relative permittivity at zero frequency ([2]; 320.65 K): 8.82 ± 0.09 | relative permittivity at zero frequency ([2]; 323.15 K): 8.77 ± 0.09 | relative permittivity at zero frequency ([2]; 325.65 K): 8.73 ± 0.09 | relative permittivity at zero frequency ([2]; 328.15 K): 8.69 ± 0.09 | relative permittivity at zero frequency ([2]; 330.65 K): 8.64 ± 0.09 | relative permittivity at zero frequency ([2]; 333.15 K): 8.59 ± 0.09 | relative permittivity at zero frequency ([2]; 335.65 K): 8.54 ± 0.09 | relative permittivity at zero frequency ([2]; 338.15 K): 8.49 ± 0.09 | relative permittivity at zero frequency ([2]; 340.65 K): 8.44 ± 0.08 | relative permittivity at zero frequency ([2]; 343.15 K): 8.39 ± 0.08 | relative permittivity at zero frequency ([2]; 345.65 K): 8.34 ± 0.08 | relative permittivity at zero frequency ([2]; 348.15 K): 8.29 ± 0.08 | relative permittivity at zero frequency ([2]; 350.65 K): 8.24 ± 0.08 | relative permittivity at zero frequency ([2]; 353.15 K): 8.19 ± 0.08

C1COCCOCCOCCO1 [1,4,7,10-tetraoxacyclododecane]
Normal melting temperature [1]: 16 ± 1 °C | relative permittivity at zero frequency ([2]; 295.65 K): 10.95 ± 0.11 | relative permittivity at zero frequency ([2]; 298.15 K): 10.82 ± 0.11 | relative permittivity at zero frequency ([2]; 300.65 K): 10.7 ± 0.11 | relative permittivity at zero frequency ([2]; 303.15 K): 10.58 ± 0.11 | relative permittivity at zero frequency ([2]; 305.65 K): 10.45 ± 0.1 | relative permittivity at zero frequency ([2]; 308.15 K): 10.34 ± 0.1 | relative permittivity at zero frequency ([2]; 310.65 K): 10.22 ± 0.1 | relative permittivity at zero frequency ([2]; 313.15 K): 10.11 ± 0.1 | relative permittivity at zero frequency ([2]; 315.65 K): 10 ± 0.1 | relative permittivity at zero frequency ([2]; 318.15 K): 9.9 ± 0.1 | relative permittivity at zero frequency ([2]; 320.65 K): 9.79 ± 0.1 | relative permittivity at zero frequency ([2]; 323.15 K): 9.69 ± 0.1 | relative permittivity at zero frequency ([2]; 325.65 K): 9.59 ± 0.1 | relative permittivity at zero frequency ([2]; 328.15 K): 9.49 ± 0.1 | relative permittivity at zero frequency ([2]; 330.65 K): 9.41 ± 0.09 | relative permittivity at zero frequency ([2]; 333.15 K): 9.31 ± 0.09 | relative permittivity at zero frequency ([2]; 335.65 K): 9.22 ± 0.09 | relative permittivity at zero frequency ([2]; 338.15 K): 9.13 ± 0.09 | relative permittivity at zero frequency ([2]; 340.65 K): 9.04 ± 0.09 | relative permittivity at zero frequency ([2]; 343.15 K): 8.94 ± 0.09 | relative permittivity at zero frequency ([2]; 345.65 K): 8.86 ± 0.09 | relative permittivity at zero frequency ([2]; 348.15 K): 8.76 ± 0.09 | relative permittivity at zero frequency ([2]; 350.65 K): 8.68 ± 0.09 | relative permittivity at zero frequency ([2]; 353.15 K): 8.59 ± 0.09

C1COCCOCCOCCOCCO1 [1,4,7,10,13-pentaoxacyclopentadecane]
Normal melting temperature [1]: -20 ± 1 °C | relative permittivity at zero frequency ([2]; 273.15 K): 17.82 ± 0.18 | relative permittivity at zero frequency ([2]; 275.65 K): 17.56 ± 0.18 | relative permittivity at zero frequency ([2]; 278.15 K): 17.3 ± 0.17 | relative permittivity at zero frequency ([2]; 280.65 K): 17.05 ± 0.17 | relative permittivity at zero frequency ([2]; 283.15 K): 16.81 ± 0.17 | relative permittivity at zero frequency ([2]; 285.65 K): 16.57 ± 0.17 | relative permittivity at zero frequency ([2]; 288.15 K): 16.34 ± 0.16 | relative permittivity at zero frequency ([2]; 290.65 K): 16.11 ± 0.16 | relative permittivity at zero frequency ([2]; 293.15 K): 15.89 ± 0.16 | relative permittivity at zero frequency ([2]; 295.65 K): 15.68 ± 0.16 | relative permittivity at zero frequency ([2]; 298.15 K): 15.48 ± 0.15 | relative permittivity at zero frequency ([2]; 300.65 K): 15.28 ± 0.15 | relative permittivity at zero frequency ([2]; 303.15 K): 15.08 ± 0.15 | relative permittivity at zero frequency ([2]; 305.65 K): 14.88 ± 0.15 | relative permittivity at zero frequency ([2]; 308.15 K): 14.69 ± 0.15 | relative permittivity at zero frequency ([2]; 310.65 K): 14.5 ± 0.15 | relative permittivity at zero frequency ([2]; 313.15 K): 14.31 ± 0.14 | relative permittivity at zero frequency ([2]; 315.65 K): 14.14 ± 0.14 | relative permittivity at zero frequency ([2]; 318.15 K): 13.96 ± 0.14 | relative permittivity at zero frequency ([2]; 320.65 K): 13.79 ± 0.14 | relative permittivity at zero frequency ([2]; 323.15 K): 13.63 ± 0.14 | relative permittivity at zero frequency ([2]; 325.65 K): 13.46 ± 0.13 | relative permittivity at zero frequency ([2]; 328.15 K): 13.3 ± 0.13 | relative permittivity at zero frequency ([2]; 330.65 K): 13.15 ± 0.13 | relative permittivity at zero frequency ([2]; 333.15 K): 13 ± 0.13
